Assay [1] has as its target AP2-associated protein kinase 1 (Homo sapiens, UniProt Q2M2I8).
The target of a further assay is Deoxycytidine kinase (Homo sapiens, UniProt P27707).
In assay [2] the target is Mitotic checkpoint serine/threonine-protein kinase BUB1 (Homo sapiens, UniProt O43683).
For assay [3], the target named is T1, Uncharacterized protein FLJ45252 (Homo sapiens, UniProt Q6ZSR9).
T1 sequence (Q6ZSR9 whole entry): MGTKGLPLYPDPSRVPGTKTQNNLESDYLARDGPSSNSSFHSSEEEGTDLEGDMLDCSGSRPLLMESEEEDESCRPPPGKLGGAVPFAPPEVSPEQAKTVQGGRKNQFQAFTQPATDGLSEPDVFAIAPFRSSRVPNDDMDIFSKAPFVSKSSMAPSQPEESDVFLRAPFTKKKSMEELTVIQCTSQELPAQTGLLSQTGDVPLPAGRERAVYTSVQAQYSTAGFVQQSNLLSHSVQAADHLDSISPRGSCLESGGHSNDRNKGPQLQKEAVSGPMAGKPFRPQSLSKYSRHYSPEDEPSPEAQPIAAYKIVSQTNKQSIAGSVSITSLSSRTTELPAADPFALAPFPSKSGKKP
The conditions noted are these: read-out: Kd apparent; k-562, colo 205, sk-n-be(2) and mv-4-11.

Assay [4] has as its target Ribosomal protein S6 kinase alpha-6 (Homo sapiens, UniProt Q9UK32).
Assay [5] deals with T2, Serine/threonine-protein kinase ICK (Homo sapiens, UniProt Q9UPZ9).
T2 sequence (Q9UPZ9 whole entry): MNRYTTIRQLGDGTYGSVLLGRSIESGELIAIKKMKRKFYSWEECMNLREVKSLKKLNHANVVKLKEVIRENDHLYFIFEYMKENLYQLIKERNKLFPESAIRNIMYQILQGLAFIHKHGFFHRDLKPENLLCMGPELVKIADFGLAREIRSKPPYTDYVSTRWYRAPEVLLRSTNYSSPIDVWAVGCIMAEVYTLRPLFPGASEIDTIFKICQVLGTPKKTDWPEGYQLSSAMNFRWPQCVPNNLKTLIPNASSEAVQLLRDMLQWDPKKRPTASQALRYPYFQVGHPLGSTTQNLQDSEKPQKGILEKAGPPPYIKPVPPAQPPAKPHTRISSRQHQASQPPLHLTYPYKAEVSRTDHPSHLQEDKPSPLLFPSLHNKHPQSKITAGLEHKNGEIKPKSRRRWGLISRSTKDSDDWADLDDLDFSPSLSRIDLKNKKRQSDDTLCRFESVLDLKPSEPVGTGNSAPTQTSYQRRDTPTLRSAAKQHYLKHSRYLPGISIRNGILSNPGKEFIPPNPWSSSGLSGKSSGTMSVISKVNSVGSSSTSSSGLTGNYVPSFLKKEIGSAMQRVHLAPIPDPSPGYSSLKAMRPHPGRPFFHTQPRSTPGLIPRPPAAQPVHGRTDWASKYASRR

Assay [6] addresses T3, cGMP-dependent protein kinase 1 (Homo sapiens, UniProt Q13976).
T3 sequence (Q13976 whole entry): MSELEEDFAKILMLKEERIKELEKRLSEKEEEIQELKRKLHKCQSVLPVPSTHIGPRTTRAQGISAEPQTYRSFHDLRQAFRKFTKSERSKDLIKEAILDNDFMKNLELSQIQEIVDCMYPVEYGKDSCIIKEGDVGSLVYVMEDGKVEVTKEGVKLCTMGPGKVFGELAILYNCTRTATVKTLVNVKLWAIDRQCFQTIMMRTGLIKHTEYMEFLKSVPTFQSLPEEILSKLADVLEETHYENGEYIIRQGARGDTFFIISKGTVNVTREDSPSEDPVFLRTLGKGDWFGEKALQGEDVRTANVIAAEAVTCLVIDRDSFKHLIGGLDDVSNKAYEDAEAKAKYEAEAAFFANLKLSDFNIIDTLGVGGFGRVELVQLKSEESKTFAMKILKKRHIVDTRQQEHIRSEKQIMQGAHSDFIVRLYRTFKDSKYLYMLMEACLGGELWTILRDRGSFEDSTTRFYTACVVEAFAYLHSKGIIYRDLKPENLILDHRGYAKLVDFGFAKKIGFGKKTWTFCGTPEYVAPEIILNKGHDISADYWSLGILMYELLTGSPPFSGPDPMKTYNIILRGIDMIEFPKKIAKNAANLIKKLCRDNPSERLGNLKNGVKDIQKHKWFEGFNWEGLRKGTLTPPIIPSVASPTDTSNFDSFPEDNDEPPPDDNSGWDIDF

The target in assay [7] is T4, Interleukin-1 receptor-associated kinase 4 (Homo sapiens, UniProt Q9NWZ3).
T4 sequence (Q9NWZ3 whole entry): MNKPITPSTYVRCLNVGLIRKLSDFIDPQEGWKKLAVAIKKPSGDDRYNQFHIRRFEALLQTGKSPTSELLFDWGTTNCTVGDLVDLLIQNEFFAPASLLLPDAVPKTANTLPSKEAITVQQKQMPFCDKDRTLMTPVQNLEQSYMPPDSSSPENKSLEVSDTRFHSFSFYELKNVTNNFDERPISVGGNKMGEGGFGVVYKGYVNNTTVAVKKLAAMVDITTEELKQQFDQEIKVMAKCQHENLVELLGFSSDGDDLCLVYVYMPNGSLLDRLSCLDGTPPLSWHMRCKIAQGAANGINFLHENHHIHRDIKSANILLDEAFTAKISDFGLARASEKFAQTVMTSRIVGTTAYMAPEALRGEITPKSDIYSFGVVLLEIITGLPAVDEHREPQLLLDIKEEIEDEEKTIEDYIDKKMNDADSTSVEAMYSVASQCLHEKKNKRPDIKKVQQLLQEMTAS

The target in assay [8] is T5, Dual specificity mitogen-activated protein kinase kinase 6 (Homo sapiens, UniProt P52564).
T5 sequence (P52564 whole entry): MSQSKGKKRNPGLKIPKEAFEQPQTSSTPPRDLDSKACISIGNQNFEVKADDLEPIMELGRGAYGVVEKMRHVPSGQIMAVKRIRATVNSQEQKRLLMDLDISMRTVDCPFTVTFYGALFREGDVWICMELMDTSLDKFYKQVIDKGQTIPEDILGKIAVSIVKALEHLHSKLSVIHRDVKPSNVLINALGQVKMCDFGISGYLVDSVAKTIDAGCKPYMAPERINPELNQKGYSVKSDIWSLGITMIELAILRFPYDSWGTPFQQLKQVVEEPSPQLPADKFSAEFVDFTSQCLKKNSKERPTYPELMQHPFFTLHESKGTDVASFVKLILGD

For assay [9], the target named is Cyclin-dependent kinase 3 (Homo sapiens, UniProt Q00526).
Assay [10] addresses Macrophage-stimulating protein receptor (Homo sapiens, UniProt Q04912).
In assay [11] the target is Casein kinase I isoform alpha (Homo sapiens, UniProt P48729).

Data on 14 molecules can be found in ChEMBL document CHEMBL3991601, “The target landscape of clinical kinase drugs” (Science, 2017).

Activity calls are given as the source filed them. Cut-off read from the data, not from the text of the source, for most assays here: actives have a measured Kd and inactives only a lower limit.
Note: in the data inactive means no Kd found up to 30 µM.

Mitotic checkpoint serine/threonine-protein kinase BUB1, sequence (O43683 whole entry): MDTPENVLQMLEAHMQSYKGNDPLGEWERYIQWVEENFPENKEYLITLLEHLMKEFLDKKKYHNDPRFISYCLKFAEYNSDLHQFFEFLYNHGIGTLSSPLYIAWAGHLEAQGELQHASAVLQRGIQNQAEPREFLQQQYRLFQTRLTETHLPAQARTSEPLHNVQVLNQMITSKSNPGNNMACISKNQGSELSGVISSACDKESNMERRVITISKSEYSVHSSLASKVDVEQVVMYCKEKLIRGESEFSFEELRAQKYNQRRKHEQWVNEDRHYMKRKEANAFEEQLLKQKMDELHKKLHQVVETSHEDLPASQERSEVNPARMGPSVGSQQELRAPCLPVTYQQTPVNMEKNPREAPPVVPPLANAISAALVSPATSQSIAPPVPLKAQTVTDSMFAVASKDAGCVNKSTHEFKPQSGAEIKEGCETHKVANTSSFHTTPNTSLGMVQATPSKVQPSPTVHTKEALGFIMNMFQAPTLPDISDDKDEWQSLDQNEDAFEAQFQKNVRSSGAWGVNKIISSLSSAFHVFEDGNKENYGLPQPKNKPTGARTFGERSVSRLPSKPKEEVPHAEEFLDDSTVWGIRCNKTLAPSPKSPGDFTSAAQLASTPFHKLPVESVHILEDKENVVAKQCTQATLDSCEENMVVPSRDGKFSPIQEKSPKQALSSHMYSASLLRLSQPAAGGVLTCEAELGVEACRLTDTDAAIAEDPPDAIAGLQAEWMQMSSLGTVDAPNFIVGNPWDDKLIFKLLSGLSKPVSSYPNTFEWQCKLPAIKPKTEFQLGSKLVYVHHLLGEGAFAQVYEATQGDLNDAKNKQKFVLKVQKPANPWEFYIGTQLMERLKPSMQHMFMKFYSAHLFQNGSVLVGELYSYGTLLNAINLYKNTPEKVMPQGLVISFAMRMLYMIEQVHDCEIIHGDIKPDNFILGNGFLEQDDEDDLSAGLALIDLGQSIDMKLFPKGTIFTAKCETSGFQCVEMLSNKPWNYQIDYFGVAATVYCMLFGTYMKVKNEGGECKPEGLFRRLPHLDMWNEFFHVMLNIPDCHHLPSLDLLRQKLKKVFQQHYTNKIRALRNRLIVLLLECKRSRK
AP2-associated protein kinase 1, sequence (Q2M2I8 whole entry): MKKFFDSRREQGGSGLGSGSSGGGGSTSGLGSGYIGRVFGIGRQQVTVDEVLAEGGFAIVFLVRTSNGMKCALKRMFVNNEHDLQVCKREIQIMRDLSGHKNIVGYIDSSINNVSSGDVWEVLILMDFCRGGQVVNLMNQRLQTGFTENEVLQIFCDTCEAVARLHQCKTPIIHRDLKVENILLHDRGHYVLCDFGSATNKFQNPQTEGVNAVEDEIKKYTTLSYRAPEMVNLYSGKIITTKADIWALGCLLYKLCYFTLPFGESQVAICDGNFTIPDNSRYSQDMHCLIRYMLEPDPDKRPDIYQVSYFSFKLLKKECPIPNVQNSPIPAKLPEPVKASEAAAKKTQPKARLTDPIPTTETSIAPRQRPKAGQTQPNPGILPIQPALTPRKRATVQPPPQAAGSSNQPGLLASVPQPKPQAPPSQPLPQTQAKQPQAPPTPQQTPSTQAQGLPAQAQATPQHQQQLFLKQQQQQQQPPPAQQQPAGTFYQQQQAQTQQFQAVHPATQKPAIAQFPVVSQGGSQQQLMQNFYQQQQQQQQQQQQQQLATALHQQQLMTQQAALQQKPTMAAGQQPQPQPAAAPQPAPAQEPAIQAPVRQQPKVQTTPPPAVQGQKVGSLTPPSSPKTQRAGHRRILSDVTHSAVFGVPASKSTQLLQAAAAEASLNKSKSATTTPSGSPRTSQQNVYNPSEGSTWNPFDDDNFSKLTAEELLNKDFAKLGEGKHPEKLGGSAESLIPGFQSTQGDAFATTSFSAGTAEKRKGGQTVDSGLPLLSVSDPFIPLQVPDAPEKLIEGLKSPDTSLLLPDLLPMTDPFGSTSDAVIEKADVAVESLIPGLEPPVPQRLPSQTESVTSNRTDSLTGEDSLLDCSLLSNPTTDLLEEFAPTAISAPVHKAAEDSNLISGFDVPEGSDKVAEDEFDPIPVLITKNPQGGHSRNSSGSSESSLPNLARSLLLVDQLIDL
Cyclin-dependent kinase 3, sequence (Q00526 whole entry): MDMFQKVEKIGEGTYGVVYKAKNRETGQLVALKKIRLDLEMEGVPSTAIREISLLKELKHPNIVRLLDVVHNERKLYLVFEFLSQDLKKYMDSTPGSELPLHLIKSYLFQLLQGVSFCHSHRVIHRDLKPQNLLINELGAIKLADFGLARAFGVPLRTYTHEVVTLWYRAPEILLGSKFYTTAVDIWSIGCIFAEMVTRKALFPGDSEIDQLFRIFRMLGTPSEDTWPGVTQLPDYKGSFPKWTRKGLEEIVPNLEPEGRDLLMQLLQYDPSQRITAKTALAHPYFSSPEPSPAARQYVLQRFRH
Ribosomal protein S6 kinase alpha-6, sequence (Q9UK32 whole entry): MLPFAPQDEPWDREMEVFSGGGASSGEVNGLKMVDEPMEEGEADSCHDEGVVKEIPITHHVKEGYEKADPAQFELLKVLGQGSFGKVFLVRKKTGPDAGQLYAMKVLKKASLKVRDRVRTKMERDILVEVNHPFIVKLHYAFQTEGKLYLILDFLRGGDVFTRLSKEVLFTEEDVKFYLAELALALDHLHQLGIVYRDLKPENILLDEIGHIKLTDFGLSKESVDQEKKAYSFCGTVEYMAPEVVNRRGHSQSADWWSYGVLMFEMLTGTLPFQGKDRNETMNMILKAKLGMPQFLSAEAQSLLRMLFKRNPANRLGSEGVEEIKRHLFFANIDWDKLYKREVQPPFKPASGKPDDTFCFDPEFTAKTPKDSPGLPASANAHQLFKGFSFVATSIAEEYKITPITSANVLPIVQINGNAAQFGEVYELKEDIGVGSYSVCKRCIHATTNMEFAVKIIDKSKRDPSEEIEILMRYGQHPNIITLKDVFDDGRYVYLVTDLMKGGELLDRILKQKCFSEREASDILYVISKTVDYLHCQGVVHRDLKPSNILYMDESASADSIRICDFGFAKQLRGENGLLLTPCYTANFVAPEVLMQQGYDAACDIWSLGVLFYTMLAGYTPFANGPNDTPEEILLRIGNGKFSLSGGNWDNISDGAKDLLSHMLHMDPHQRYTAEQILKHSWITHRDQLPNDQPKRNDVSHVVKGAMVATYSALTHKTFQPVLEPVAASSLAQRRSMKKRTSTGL
Deoxycytidine kinase, sequence (P27707 whole entry): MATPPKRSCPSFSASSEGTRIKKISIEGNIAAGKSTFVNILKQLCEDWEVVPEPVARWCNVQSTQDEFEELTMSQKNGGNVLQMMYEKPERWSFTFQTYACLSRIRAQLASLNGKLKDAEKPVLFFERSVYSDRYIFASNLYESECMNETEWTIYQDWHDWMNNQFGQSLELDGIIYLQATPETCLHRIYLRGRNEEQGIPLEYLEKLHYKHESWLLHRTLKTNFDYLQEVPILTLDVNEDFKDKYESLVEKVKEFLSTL
Casein kinase I isoform alpha, sequence (P48729 whole entry, canonical isoform): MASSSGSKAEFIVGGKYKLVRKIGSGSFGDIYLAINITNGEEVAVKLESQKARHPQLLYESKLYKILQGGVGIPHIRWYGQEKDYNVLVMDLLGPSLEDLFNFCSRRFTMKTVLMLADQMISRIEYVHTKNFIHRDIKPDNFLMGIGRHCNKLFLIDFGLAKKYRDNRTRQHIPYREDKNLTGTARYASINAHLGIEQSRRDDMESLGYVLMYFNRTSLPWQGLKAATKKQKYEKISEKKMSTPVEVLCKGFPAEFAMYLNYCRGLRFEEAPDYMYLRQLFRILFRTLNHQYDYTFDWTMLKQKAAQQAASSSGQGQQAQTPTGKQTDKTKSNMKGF

On to `C=CCn1c(=O)c2cnc(Nc3ccc(N4CCN(C)CC4)cc3)nc2n1-c1cccc(C(C)(C)O)n1` [ADAVOSERTIB], for which the Kd (in assay [1]; on Deoxycytidine kinase; in assay [2]; in assay [3]; in assay [4]; in [5]) was > 30 µM (inactive) in each case. Also, the Kd in assay [6], in assay [7], in assay [8] and in [9] was > 30 µM (inactive) in each case.

Regarding `CC1(C)CNc2cc(NC(=O)c3cccnc3NCc3ccncc3)ccc21` [MOTESANIB], the Kd (on Deoxycytidine kinase; in [2]; in [3]) was > 30 µM (inactive) in each case.

As to `COc1cc2c(N3CCN(C(=O)Nc4ccc(OC(C)C)cc4)CC3)ncnc2cc1OCCCN1CCCCC1` [TANDUTINIB], the Kd (on Deoxycytidine kinase; in assay [2]; in [3]) was > 30 µM (inactive) throughout.

As to `O=S(=O)(c1cccc2cnccc12)N1CCCNCC1` [FASUDIL], the Kd (in assay [1]; on Deoxycytidine kinase; in [2]; in assay [3]; in assay [4]; in [8]) was > 30 µM (inactive) in each case. Further, the Kd in [9] is > 30 µM (inactive).

Turning to `CCN(CCCOc1ccc2c(Nc3cc(CC(=O)Nc4cccc(F)c4)n[nH]3)ncnc2c1)CCOP(=O)(O)O` [BARASERTIB], the Kd (in assay [1]; on Deoxycytidine kinase; in assay [3]; in assay [4]; in [5]; in assay [6]) was > 30 µM (inactive) each time. Also, the Kd in assay [7], in [8] and in assay [9] was > 30 µM (inactive) in each case.

In the case of `N#CCNC(=O)c1ccc(-c2ccnc(Nc3ccc(N4CCOCC4)cc3)n2)cc1` [MOMELOTINIB], the Kd in assay [1] was 0.004 µM (active); on Deoxycytidine kinase it was > 30 µM (inactive); in assay [10], > 30 µM (inactive); in [11], > 30 µM (inactive); in [2], > 30 µM (inactive); in assay [4] it was > 30 µM (inactive). Further, the Kd in assay [6], in [7] and in assay [8] was > 30 µM (inactive) throughout.

In the case of `CN(C)C/C=C/C(=O)Nc1cc2c(Nc3ccc(F)c(Cl)c3)ncnc2cc1O[C@H]1CCOC1` [AFATINIB], the Kd (at Deoxycytidine kinase; in [2]; in [3]) was > 30 µM (inactive) throughout.

As for `Cn1cnc2c(F)c(Nc3ccc(Br)cc3Cl)c(C(=O)NOCCO)cc21` [SELUMETINIB], the Kd at Deoxycytidine kinase was > 30 µM (inactive); in assay [2] it was > 30 µM (inactive); in assay [3], 0.807 µM (active).

For the molecule `Cn1c(=O)n(-c2ccc(C(C)(C)C#N)cc2)c2c3cc(-c4cnc5ccccc5c4)ccc3ncc21` [DACTOLISIB], the Kd (in assay [1]; at Deoxycytidine kinase; in assay [2]; in assay [3]; in assay [4]; in [5]) was > 30 µM (inactive) throughout. In addition, the Kd in assay [6], in assay [7], in [8] and in assay [9] was > 30 µM (inactive) throughout.

`COc1cc2c(Oc3ccc4[nH]c(C)cc4c3F)ncnc2cc1OCCCN1CCCC1` [CEDIRANIB]: the Kd (at Deoxycytidine kinase; in assay [2]) was > 30 µM (inactive) in each case.

Take `C[C@]1(O)C[C@@H](c2nc(-c3ccc4ccc(-c5ccccc5)nc4c3)c3c(N)nccn32)C1` [LINSITINIB]: the Kd (in [1]; on Deoxycytidine kinase; in assay [2]; in assay [3]; in assay [4]; in assay [5]) was > 30 µM (inactive) throughout. Also, the Kd in [8] and in assay [9] was > 30 µM (inactive) each time.

Regarding `CN(c1ncccc1CNc1nc(Nc2ccc3c(c2)CC(=O)N3)ncc1C(F)(F)F)S(C)(=O)=O` [PF-00562271], the Kd (in assay [1]; on Deoxycytidine kinase; in [2]; in assay [3]; in assay [4]; in [5]) was > 30 µM (inactive) throughout. Besides, in [9], the Kd is 3.43 µM (active).

Turning to `C[C@@]1(C(=O)Nc2ccc(F)nc2)CCCN1c1nc(Nc2cc(C3CC3)n[nH]2)c2cccn2n1` [BMS-754807], the Kd (on Deoxycytidine kinase; in [3]) was > 30 µM (inactive) throughout.

As for `COc1cc2nccc(Oc3ccc(NC(=O)C4(C(=O)Nc5ccc(F)cc5)CC4)cc3)c2cc1OC` [CABOZANTINIB], the Kd (in assay [1]; on Deoxycytidine kinase; in assay [11]; in assay [2]; in assay [3]; in assay [4]) was > 30 µM (inactive) throughout. Besides, the Kd in assay [5], in assay [6], in [7], in [8] and in assay [9] was > 30 µM (inactive) in each case.
